Key:
[1] = test system: insulin resistant and obese male C57BL/6J mice; assay: Acute TAS4464 treatment of obese, insulin resistant WD-fed mice; assay type: in vivo; conditions: WD 8 weeks
Protocol: Mice were fed WD for 8 weeks to render them insulin resistant and obese. Mice were then treated with 45 mg/kg TAS4464 or vehicle once at 5 pm on day 1 and once at 9 am on day 2. Body weight and blood glucose were measured at 3 pm on day 2.
Mice were fed WD for 8 weeks, after which the mice were injected with vehicle or 45 mg/kg TAS4464 subcutaneously at 5 pm on day 1 and 9 am on day 2. Mice were fasted from 9 am to 3 pm on day 2 and blood glucose was measured. Results are expressed as mean ± SEM. […]. “*”, p < 0.05, vs. Vehicle.
(§1) MLN4924 and TAS4464 were purchased from MedChemExpress (MCE, Monmouth Junction, NJ). For cell treatment, MLN4924 and TAS4464 were dissolved in DMSO. Cells were serum starved overnight and then treated with MLN4924, TAS4464 and/or insulin as indicated. For injection in mice, MLN4924 and TAS4464 were first dissolved in DMSO, which was further suspended in 10% (2-hydroxypropyl)-β-cyclodextrin (Sigma, St. Louis, MO). The final solution contains 1% DMSO. The subcutaneous injection volume is 200 µl/mouse.
Treatment of obese mice with TASS4464 reduced the blood glucose to ~100 mg/dl.

male C57BL6/J mice = assay: Plasma/serum insulin and c-peptide after acute neddylation inhibitor treatment; assay type: in vivo; conditions: 6 h fast
Protocol: Male C57BL6/J mice on chow diet were treated with 45 mg/kg TAS4464 via subcutaneous injection at 9 am. Mice were then fasted for 6 hours and serum insulin was measured. Blood samples were collected at 0 min and 120 min and used for insulin measurement (n=4). Left-hand bars are controls. Right-hand bars are TAS4464 treatments.
Male C57BL6/J mice on Western diet were treated with 15 mg/kg TAS4464 via subcutaneous injection at 9 am. Mice were then fasted for 6 hours and serum c-peptide were measured (n=5).
Male C57BL6/J mice on chow diet were treated with 60 mg/kg MLN4924 via subcutaneous injection at 9 am. Mice were then fasted for 6 hours and serum c-peptide were measured (n=8)
Aspartate aminotransferase (AST) and alanine aminotransferase (ALT) assay kits were purchased from Pointe Scientific (Canton, MI). Free fatty acid assay kit was purchased from Biovision Inc. (Milpitas, CA). Insulin ELISA kit was purchased from Crystal Chem Inc. (Elk Grove Village, IL).
A hyperinsulinemic-euglycemic clamp study was conducted in which obese mice were treated with vehicle or MLN4924.

AML12 mouse hepatocytes = assay: Western blot of insulin signaling and cullin neddylation in AML12 cells; assay type: cell-based
Protocol: MLN4924 increases IRS protein and AKT activation in the presence of insulin. Mouse AML 12 hepatocytes were serum starved for 16 h. Cells were then pre-treated with MLN4924 for 1 h followed by 100 nM insulin stimulation for 4 h. Western blot was then performed to evaluate insulin signaling activation.
AML 12 cells were serum starved for 16 h. Cells were then pre-treated with 500 nM MLN4924 or vehicle (DMSO) for 1 h, followed by 100 µg/ml cycloheximide (CHX) and 100 nM insulin treatment.
AML12 cells were serum starved for 16 h. Cells were then pre-treated with 500 nM MLN4924 for 1 h followed by 100 nM insulin stimulation in time course.
FIG. 18A is a Western blot analysis showing that MLN4924 enhances hepatocyte insulin responsiveness (signaling) by delaying feedback IRS degradation. AML12 cells were serum starved for 16 h. Cells were then pre-treated with MLN4924 for 1 h followed by insulin stimulation for 4 h.
FIG. 18D is a Western blot analysis of insulin signaling in AML12 cells serum starved for 16 h, then pre-treated with 500 nM MLN4924 for 1 h followed by 100 nM insulin stimulation in time course.
FIG. 18E is a Western blot analysis of AML12 cells serum starved for 16 h then pre-treated with 500 nM MLN4924 or vehicle (DMSO) for 1 h, followed by 100 µg/ml cycloheximide (CHX) and 100 nM insulin treatment. Cells were collected at the indicated time for Western blotting.
FIG. 18F is a Western blot analysis of insulin signaling in AML12 cells serum starved for 16 h then pre-treated with 100 nM rapamycin and 500 nM MLN4924 as indicated for 1 h followed by additional 2 h incubation in the presence or absence of 100 nM insulin. Blots are representative of 2-4 independent experiments.
(§2) FIG. 20 is a Western blot analysis showing that MLN4924 enhances hepatocyte insulin responsiveness in cells treated with wortmannin by delaying feedback IRS degradation (related to FIG. 18A). AML12 cells were serum starved for 16 h then pre-treated with 1 µM wortmannin (Wort) and 500 nM MLN4924 as indicated for 1 h followed by additional 2 h incubation in the presence or absence of 100 nM insulin. Blots are representative of 2 independent experiments.
as §2, with “21” for “20”, “Torin 1” for “wortmannin”, “250 nM Torin1” for “1 µM wortmannin (Wort)”
as §1
Protein lysates were prepared in RIPA buffer containing 1% SDS and protease inhibitors on ice for 1 h followed by brief sonication. After centrifugation, supernatant was used for SDS-PAGE and immunoblotting.
AML12 cells were a generous gift from Dr. Yanqiao Zhang (Northeast Ohio Medical University). AML12 cells were cultured in DMEM medium supplemented with a mixture of insulin-transferrin-selenium (#41400-045, ThermoFisher, Waltham, MA). For experiments, cells were cultured in serum free medium overnight before various treatments were initiated. The siGENOME SMARTpool siRNA and siControl were purchased from Dharmacon, Inc. (Lafayette, CO). The siRNA was transfected with Lipofectamine RNAiMAX reagent in a final concentration of 25 nM recommended by the manufacturer. […]

[2] = 1 µM wortmannin or 250 nM Torin1, 100 nM insulin

Row | Structure (SMILES) | blood glucose after 6-hour fast ([1]; 45 mg/kg SQ at 5 pm day 1 and 9 am day 2) | blood glucose (in words) ([1]; 45 mg/kg SQ twice, 6 h fast) | serum c-peptide concentration (male C57BL6/J mice; Western diet, 15 mg/kg SQ at 9 am) | serum insulin concentration (male C57BL6/J mice; chow diet, 45 mg/kg SQ at 9 am) | IRS protein (AML12 mouse hepatocytes; TAS4464 increasing doses, 5 h) | neddylated cullin 1 (AML12 mouse hepatocytes; TAS4464 increasing doses, 5 h) | total neddylated cullins (AML12 mouse hepatocytes; TAS4464 increasing doses, 5 h) | downstream AKT activation (AML12 mouse hepatocytes; [2]) | downstream mTOR activation (AML12 mouse hepatocytes; [2])
1 | CCOc1cccc(F)c1C#Cc1cn([C@@H]2O[C@H](CNS(N)(=O)=O)[C@@H](O)[C@H]2O)c2ncnc(N)c12 [TAS4464, 7H-Pyrrolo[2,3-d]pyrimidin-4-amine, 7-[5-[(aminosulfonyl)amino]-5-deoxy-beta-D-ribofuranosyl]-5-[2-(2-ethoxy-6-fluorophenyl)ethynyl]-] | ~ 100 mg/dl | acutely reduced blood glucose | elevated serum c-peptide concentration | increases serum insulin concentration | increased IRS protein | significantly inhibited | significantly inhibited | – | –
2 | CCC(=O)N1CCN(c2ccc(-n3c(=O)ccc4cnc5ccc(-c6cnc7ccccc7c6)cc5c43)cc2C(F)(F)F)CC1 [Torin 1] | – | – | – | – | – | – | – | decreased downstream AKT activation | blocked downstream mTOR activation

Source: patent publication US20230218654A1, “COMPOSITIONS AND METHODS FOR TREATING HYPERGLYCEMIA IN TYPE-2 DIABETES” (The Board of Regents of the university of Oklahoma, priority 2020, published 2023)
